The target of one series is JAK1 (h) (Homo sapiens (Human), UniProt P23458). Kind of series: JAK1 kinase assay (33P-ATP filter binding, Millipore). The series is classed as biochemical. How it is done: Kinase assays can be performed by measurement of incorporation of γ-^33P ATP into immobilized myelin basic protein (MBP). High binding white 384 well plates (Greiner) are coated with MBP (Sigma #M−1891) by incubation of 60 μL/well of 20 μg/mL MBP in Tris-buffered saline (TBS; 50 mM Tris pH 8.0, 138 mM NaCl, 2.7 mM KCl) for 24 h at 4° C. Plates are washed 3× with 100 μL TBS. Kinase reactions are carried out in a total volume of 34 μL in kinase buffer (5 mM Hepes pH 7.6, 15 mM NaCl, 0.01% bovine gamma globulin (Sigma #I-5506), 10 mM MgCl2, 1 mM DTT, 0.02% TritonX-100). Compound dilutions are performed in DMSO and added to assay wells to a final DMSO concentration of 1%. Each data point is measured in duplicate, and at least two duplicate assays are performed for each individual compound determination. Enzyme is added to final concentrations of 10 nM or 20 nM, for example. A mixture of unlabeled ATP and γ-^33P ATP is added to start the reaction (2×10^6 cpm of γ-^33P ATP per well (3000 Ci/mmole) and 10 μM unlabeled ATP, typically. The reactions are carried out for 1 h at room temperature with shaking. Plates are washed 7× with TBS, followed by the addition of 50 μL/well scintillation fluid (Wallac). Plates are read using a Wallac Trilux counter. This is only one format of such assays; various other formats are possible, as known to one skilled in the art.
Sequence of JAK1 (h) (P23458 whole entry): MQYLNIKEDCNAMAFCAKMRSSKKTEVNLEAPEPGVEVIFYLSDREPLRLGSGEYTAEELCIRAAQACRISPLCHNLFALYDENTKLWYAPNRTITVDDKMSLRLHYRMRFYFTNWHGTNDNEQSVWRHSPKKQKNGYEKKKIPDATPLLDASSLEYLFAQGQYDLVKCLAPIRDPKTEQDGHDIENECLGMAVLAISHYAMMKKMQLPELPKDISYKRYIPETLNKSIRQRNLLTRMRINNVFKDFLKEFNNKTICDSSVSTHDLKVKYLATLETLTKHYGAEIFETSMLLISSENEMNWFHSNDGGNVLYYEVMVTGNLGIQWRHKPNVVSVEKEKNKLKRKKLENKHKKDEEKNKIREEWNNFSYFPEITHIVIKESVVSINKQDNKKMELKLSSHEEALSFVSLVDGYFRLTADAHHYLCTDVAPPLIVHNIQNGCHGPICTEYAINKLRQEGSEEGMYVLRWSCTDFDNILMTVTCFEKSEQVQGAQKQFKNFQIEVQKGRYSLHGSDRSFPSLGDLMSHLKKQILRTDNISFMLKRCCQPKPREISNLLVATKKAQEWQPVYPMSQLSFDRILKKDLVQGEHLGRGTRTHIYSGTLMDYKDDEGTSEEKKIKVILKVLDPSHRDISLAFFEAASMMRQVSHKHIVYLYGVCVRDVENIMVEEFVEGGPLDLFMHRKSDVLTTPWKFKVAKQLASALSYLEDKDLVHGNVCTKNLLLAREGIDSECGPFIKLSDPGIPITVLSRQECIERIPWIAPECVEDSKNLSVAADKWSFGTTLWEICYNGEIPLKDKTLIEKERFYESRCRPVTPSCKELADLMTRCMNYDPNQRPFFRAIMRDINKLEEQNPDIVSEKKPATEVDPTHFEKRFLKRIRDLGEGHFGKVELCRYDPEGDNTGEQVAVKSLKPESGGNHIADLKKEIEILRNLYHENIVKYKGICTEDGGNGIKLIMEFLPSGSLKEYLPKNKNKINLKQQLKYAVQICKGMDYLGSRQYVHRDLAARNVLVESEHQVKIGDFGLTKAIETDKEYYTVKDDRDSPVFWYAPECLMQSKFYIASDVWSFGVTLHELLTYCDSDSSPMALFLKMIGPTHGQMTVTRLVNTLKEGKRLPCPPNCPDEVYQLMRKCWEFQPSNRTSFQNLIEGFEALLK
The above assay procedure can be used to determine the IC50 for inhibition and/or the inhibition constant, Ki. The IC50 is defined as the concentration of compound required to reduce the enzyme activity by 50% under the condition of the assay. The IC50 value is estimated by preparing a 10 point curve using a 1/2 log dilution series (for example, a typical curve may be prepared using the following compound concentrations: 3 μM, 1 μM, 0.3 μM, 0.1 μM, 0.03 μM, 0.01 μM, 0.003 μM, 0.001 μM, 0.0003 μM and 0 μM).
The kinase assays described herein were performed at Millipore UK Ltd, Dundee Technology Park, Dundee DD2 1SW, UK.

The nature of series [1]: Pharmacokinetics after intravenous and oral administration in rats. The series is classed as in vivo. Particulars: for Clearance (CL) after iv dosing / AUC(0-t) / half-life / Vd: dose 1 mg/kg (Ex. 27: 0.72 mg/kg), iv dosing; for F: oral bioavailability; for AUC(0-t) / half-life / Vd: rat, plasma; for Vd: read-out: Vss. How it is done: The LC/MS/MS system used in the analysis consists of an Agilent 1200 Series vacuum degasser, binary pump, well-plate autosampler, thermostatted column compartment, the Agilent G6430 Triple Quadrupole Mass Spectrometer with an electrosprayionization (ESI) source. Quantitative analysis was carried out using MRM mode. The parameters for MRM transitions are in the Table A.
An Agilent XDB-C18, 2.1×30 mm, 3.5 μM column was used for the analysis. 5 μL of the samples were injected. Analysis condition: The mobile phase was 0.1% formic acid in water (A) and 0.1% formic acid in methanol (B). The flow rate was 0.4 mL/min. And the gradient of Mobile phase was in the Table B.
Alternatively, an Agilent 6330 series LC/MS/MS spectrometer equipped with G1312A binary pumps, a G1367A autosampler and a G1314C UV detector were used in the analysis. An ESI source was used on the LC/MS/MS spectrometer. The analysis was done in positive ion mode as appropriate and the MRM transition for each analyte was optimized using standard solution. A Capcell MP-C18 100×4.6 mm I.D., […] column (Phenomenex, Torrance, Calif., USA) was used during the analysis. The mobile phase was 5 mM ammonia acetate, 0.1% MeOH in water (A): 5 mM ammonia acetate, 0.1% MeOH in acetonitrile (B) (70:30, v/v). The flow rate was 0.6 mL/min. Column was maintained at ambient temperature. 20 μL of the samples were injected.
The compounds disclosed herein are assessed in pharmacokinetic studies in mice, rats, dogs or monkeys. The compounds are administered as a water solution, 2% HPMC+1% TWEEN®80 in water solution, 5% DMSO+5% solution in saline, 4% MC suspension or capsule. For the intravenous administration, the animals are generally given at 1 or 2 mg/kg dose. For the oral (p.o.) dosing, mice and rats are generally given 5 or 10 mg/kg dose, and dogs and monkeys are generally given 10 mg/kg dose. The blood samples (0.3 mL) are drawn at 0.25, 0.5, 1.0, 2.0, 3.0, 4.0, 6.0, 8.0, 12 and 24 h time points or 0.083, 0.25, 0.5, 1.0, 2.0, 4.0, 6.0, 8.0 and 24 h time points and centrifuged at 3,000 or 4000 rpm for 2 to 10 min. The plasma solutions are collected, and stored at −20° C. or −70° C. until analyzed by LC/MS/MS as described above.

The nature of series [2]: Compound stability in rat liver microsomes. Particulars: for half-life at 5 μM: compound 5 μM, NADPH 1.0 mM, 37° C.; for CLint scaled at 5 μM: in vivo CLint extrapolated. The format is in vitro ADME. On the procedure:
(§1) Human or rat liver microsomes incubations were conducted in duplicate in polypropylene tubes. The typical incubation mixtures consisted of human or rat liver microsomes (0.5 mg protein/mL), compounds of interest (5 μM) and NADPH (1.0 mM) in a total volume of 200 μL potassium phosphate buffer (PBS, 100 mM, pH 7.4). Compounds were dissolved in DMSO and diluted with PBS such that the final concentration of DMSO was 0.05%. The enzymatic reactions were commenced with the addition of protein after a 3-min preincubation and incubated in a water bath open to the air at 37° C. Reactions were terminated at various time points (0, 5, 10, 15, 30, 60 min) by adding equal volume of ice-cold acetonitrile. The samples were stored at −80° C. until LC/MS/MS assays.
(§2) The concentrations of compounds in the incubation mixtures of human or rat liver microsomes were determined by a LC/MS/MS method. The ranges of the linearity in the concentration range were determined for each tested compounds.
(§3) A parallel incubation was performed using denatured microsomes as the negative control, and reactions were terminated at various time points (0, 15, 60 min) after incubation at 37° C.
(§4) Dextromethorphan (70 μM) was selected as the positive control, and reactions were terminated at various time points (0, 5, 10, 15, 30, 60 min) after incubation at 37° C. Both positive and negative control samples were included in each assay to ensure the integrity of the microsomal incubation system.
(§5) The concentrations of compounds in human or rat liver microsome incubations were plotted as a percentage of the relevant zero time point control for each reaction. The in vivo CLint were extrapolated (ref.: Naritomi, Y.; Terashita, S.; Kimura, S.; Suzuki, A.; Kagayama, A.; and Sugiyama, Y.; Prediction of human hepatic clearance from in vivo animal experiments and in vitro metabolic studies with liver microsomes from animals and humans. Drug Metab. Dispos., 2001, 29: 1316-1324).

The nature of series [3]: Compound stability in human liver microsomes. Particulars: for half-life at 5 μM: compound 5 μM, NADPH 1.0 mM, 37° C.; for CLint scaled at 5 μM: in vivo CLint extrapolated. The series is classed as in vitro ADME. On the procedure:
as §1, §2, §3, §4, §5

Where [4] appears, read: rat, liver microsomes, pH 7.4, Rat liver microsomes 0.5 mg protein/mL.
[5] abbreviates: rat, liver microsomes, pH 7.4, Rat liver microsomes.
[6] abbreviates: human, liver microsomes, pH 7.4, Human liver microsomes 0.5 mg protein/mL.
The mark [7] stands for this setting: human, liver microsomes, pH 7.4, Human liver microsomes.
The mark [8] stands for this setting: pH 7.4, Rat liver microsomes 0.5 mg protein/mL.
Setting [9] is: pH 7.4, Human liver microsomes 0.5 mg protein/mL.

The IC50 is the point on the concentration scale where inhibition reaches its midpoint. `Cn1cc(Nc2nccc(NC3CCC4(CC3)CCN(C(=O)CC#N)C4)n2)cn1` (stereo not drawn) [Ex. 6, 3-(8-((2-((1-methyl-1H-pyrazol-4-yl)amino)pyrimidin-4-yl)amino)-2-azaspiro[4.5]decan-2-yl)-3-oxopropanenitrile]: on JAK1 (h), the IC50 was found to be 55 nM.
Usually AUC(0-t) stands for exposure summed from dosing to a finite time, without extrapolation to infinity. A higher AUC(0-t) goes with more exposure. As a reminder, the half-life is the time in which the quantity being followed falls by half. What is called CLint scaled is the rate of metabolic loss divided by the concentration. With `CN(c1nc(Nc2cnn(C)c2)ncc1Cl)C1CCC2(CCNC2)CC1` (single isomer, unassigned) [Ex. 3.10A, 5-chloro-N^4-methyl-N^2-(1-methyl-1H-pyrazol-4-yl)-N^4-(2-azaspiro[4.5]decan-8-yl)pyrimidine-2,4-diamine], in series [1], the “Clearance (CL) after iv dosing” value was 70.2 mL/min/kg, the F came out at 19.06%, the AUC(0-t) worked out at 216 ng·h/mL and the half-life was 2.72 h. In addition, the Vd in series [1] was 13.5 L/kg. The compound further had a half-life at 5 μM in series [2] (setting [4]) of 0.213 h. The CLint scaled at 5 μM in series [2] (setting [5]) was 194 mL/min/kg. This compound also gave a half-life at 5 μM in series [3] (setting [6]) of 5.24 h. The CLint scaled at 5 μM in series [3] (setting [7]) was 5.53 mL/min/kg.
For `Cc1nn(C)cc1Nc1ncc(Cl)c(NC2CCC3(CC2)CCN(C(=O)CC#N)CC3)n1` [Ex. 57, 3-(9-((5-chloro-2-((1,3-dimethyl-1H-pyrazol-4-yl)amino)pyrimidin-4-yl)amino)-3-azaspiro[5.5]undecan-3-yl)-3-oxopropanenitrile], on JAK1 (h), the IC50 was 16 nM.
For the compound `Cc1cnc(Nc2cnn(C)c2)nc1N(C)C1CCC2(CC1)CCN(C(=O)CC#N)CC2` [Ex. 23, 3-(9-(methyl(5-methyl-2-((1-methyl-1H-pyrazol-4-yl)amino)pyrimidin-4-yl)amino)-3-azaspiro[5.5]undecan-3-yl)-3-oxopropanenitrile], the half-life at 5 μM in series [2] (setting [4]) was 0.075 h; in series [3] (setting [6]), 2.09 h. The CLint scaled at 5 μM is 552 mL/min/kg in series [2] (setting [5]) and 13.9 mL/min/kg in series [3] (setting [7]).
For the compound `CN(c1ccnc(Nc2cnn(C)c2)n1)C1CNCC12CCCC2` (stereo not drawn) [Ex. 1, N^4-methyl-N^2-(1-methyl-1H-pyrazol-4-yl)-N^4-(2-azaspiro[4.4]nonan-4-yl) pyrimidine-2,4-diamine], in series [1], the “Clearance (CL) after iv dosing” value is 157 mL/min/kg, the F came out at 44.39%, the AUC(0-t) was determined as 103 ng·h/mL and the half-life is 3.77 h. Also, the Vd in series [1] was found to be 40.3 L/kg. This compound also gave a half-life at 5 μM in series [2] (setting [8]) of 4.49 h. The intrinsic clearance (CLint scaled) at 5 μM in series [2] (pH 7.4, Rat liver microsomes) was 9.23 mL/min/kg. This compound displayed a half-life at 5 μM in series [3] (setting [9]) of 3.05 h. In series [3] (pH 7.4, Human liver microsomes), the intrinsic clearance (CLint scaled) at 5 μM is 9.49 mL/min/kg.
In the case of `Cn1cc(Nc2ncc(C#N)c(NC3CC4CN(C(=O)CC#N)CC4C3)n2)cn1` (stereo not drawn) [Ex. 67, 4-((2-(2-cyanoacetyl)octahydrocyclopenta[c]pyrrol-5-yl)amino)-2-((1-methyl-1H-pyrazol-4-yl)amino)pyrimidine-5-carbonitrile], the half-life at 5 μM in series [2] (setting [8]) came to 0.44 h; in series [3] (setting [9]) it was 4.93 h. In addition, the CLint scaled at 5 μM was 94.1 mL/min/kg in series [2] (pH 7.4, Rat liver microsomes) and 5.87 mL/min/kg in series [3] (pH 7.4, Human liver microsomes).
Take `COc1cnc(Nc2cc(C3CC3)[nH]n2)nc1NC1CC2CN(C(=O)CC#N)CC2C1` (stereo not drawn) [Ex. 52, 3-(5-((2-((5-cyclopropyl-1H-pyrazol-3-yl)amino)-5-methoxypyrimidin-4-yl)amino)hexahydrocyclopenta[c]pyrrol-2(1H)-yl)-3-oxopropanenitrile]: in series [1], the “Clearance (CL) after iv dosing” value was 84.2 mL/min/kg, the F is given as 16.5%, the exposure AUC(0-t) came out at 197 ng·h/mL and the half-life was 0.32 h. Further, the Vd in series [1] is 1.6 L/kg. In series [2] (setting [8]), this compound registered a half-life at 5 μM of 0.267 h. In addition, the CLint scaled at 5 μM in series [2] (pH 7.4, Rat liver microsomes) was 155 mL/min/kg. In addition, the half-life at 5 μM in series [3] (setting [9]) was found to be 1.14 h. The CLint scaled at 5 μM in series [3] (pH 7.4, Human liver microsomes) was 25.4 mL/min/kg.
On JAK1 (h), `CC(=O)N1CC2CC(Nc3nc(Nc4cnn(C)c4)ncc3C)CC2C1` (stereo not drawn) [Ex. 61, 1-(5-((5-methyl-2-((1-methyl-1H-pyrazol-4-yl)amino)pyrimidin-4-yl)amino)hexahydrocyclopenta[c]pyrrol-2(1H)-yl)ethanone] yielded a half-inhibitory concentration (IC50) of 42 nM.
For `CC(=O)N1CC2CC(Nc3nc(Nc4cc(C5CC5)[nH]n4)ncc3Cl)CC2C1` (stereo not drawn) [Ex. 53, 1-(5-((5-chloro-2-((5-cyclopropyl-1H-pyrazol-3-yl)amino)pyrimidin-4-yl)amino)hexahydrocyclopenta[c]pyrrol-2(1H)-yl)ethanone], in series [1], the “Clearance (CL) after iv dosing” value was 55.2 mL/min/kg, the F amounted to 33.0%, the area under the curve AUC(0-t) came out at 296 ng·h/mL and the half-life is 1.02 h. Also, in series [1], the Vd is 2.46 L/kg. The same compound displayed a half-life at 5 μM in series [2] (setting [8]) of 0.385 h. In addition, the CLint scaled at 5 μM in series [2] (pH 7.4, Rat liver microsomes) is 108 mL/min/kg. Also, the half-life at 5 μM in series [3] (setting [9]) is 4.44 h. The CLint scaled at 5 μM in series [3] (pH 7.4, Human liver microsomes) was 6.53 mL/min/kg.
On to `N#CCC(=O)N1CCC2(CCC(Nc3nc(Nc4cc(C5CC5)[nH]n4)ncc3Cl)CC2)CC1` [Ex. 54, 3-(9-((5-chloro-2-((5-cyclopropyl-1H-pyrazol-3-yl)amino)pyrimidin-4-yl)amino)-3-azaspiro[5.5]undecan-3-yl)-3-oxopropanenitrile], for which the half-life at 5 μM stood at 0.527 h in series [2] (setting [4]) and 0.647 h in series [3] (setting [6]). The CLint scaled at 5 μM in series [2] (setting [5]) was 78.6 mL/min/kg; in series [3] (setting [7]) it was 44.8 mL/min/kg.

The values above are taken from patent US9403801B2 (Calitor Sciences, LLC, priority 2014, dated 2016).
